Measured values: ChEMBL document CHEMBL3352582, “Protective effects of aloe-emodin on scopolamine-induced memory impairment in mice and H₂O₂-induced cytotoxicity in PC12 cells” (Bioorg Med Chem Lett, 2014)
pIC50: −log10 of the molar value. Calls of active or inactive are those of the source. The calls are words filed in the database; no cut-off is given here.

Key:
Mus musculus [1] = experiment: Neuroprotective effect in Kunming mouse assessed as increase in scopolamine-induced reduction in time spent in target quadrant at 0.1 mg/kg, po qd administered for 15 days followed by 1 hr prior to trial session for 6 days measured at day 5 by Morris water maze test relative to sham control; type: functional, organism-based; parameters: dose 0.1 mg/kg
Mus musculus [2] = experiment: Neuroprotective effect in Kunming mouse assessed as reduction in scopolamine-induced increase in MDA level in hippocampus at 0.1 mg/kg, po qd administered for 15 days followed by 1 hr prior to trial session for 6 days relative to control; type: functional, organism-based; parameters: dose 0.1 mg/kg
Mus musculus [3] = experiment: Neuroprotective effect in Kunming mouse assessed as reversal of scopolamine-induced increase in AChE activity in hippocampus at 0.1 mg/kg, po qd administered for 15 days followed by 1 hr prior to trial session for 6 days; type: functional, organism-based; parameters: dose 0.1 mg/kg
Mus musculus [4] = experiment: Neuroprotective effect in Kunming mouse assessed as increase in scopolamine-induced reduction in time spent in platform crossing at 0.1 mg/kg, po qd administered for 15 days followed by 1 hr prior to trial session for 6 days measured at day 5 by Morris water maze test relative to sham control; type: functional, organism-based; parameters: dose 0.1 mg/kg
Mus musculus [5] = experiment: Neuroprotective effect in Kunming mouse assessed as increase in scopolamine-induced reduction in GPx level in hippocampus at 0.1 mg/kg, po qd administered for 15 days followed by 1 hr prior to trial session for 6 days relative to control; type: functional, organism-based; parameters: dose 0.1 mg/kg
Mus musculus [6] = experiment: Neuroprotective effect in Kunming mouse assessed as reversal of scopolamine-induced reduction in ACh level in hippocampus at 0.1 mg/kg, po qd administered for 15 days followed by 1 hr prior to trial session for 6 days; type: functional, organism-based; parameters: dose 0.1 mg/kg
Mus musculus [7] = experiment: Neuroprotective effect in Kunming mouse assessed as increase in scopolamine-induced reduction in SOD level in hippocampus at 0.1 mg/kg, po qd administered for 15 days followed by 1 hr prior to trial session for 6 days relative to control; type: functional, organism-based; parameters: dose 0.1 mg/kg
Mus musculus [8] = experiment: Neuroprotective effect in Kunming mouse assessed as reduction in scopolamine-induced escape latency at 0.1 mg/kg, po qd administered for 15 days followed by 1 hr prior to trial session for 6 days by Morris water maze test; type: functional, organism-based; parameters: dose 0.1 mg/kg
[9] = Cytoprotective effect against H2O2-induced cell death in rat PC12 cells at 5 ug/ml incubated for 24 hrs prior to H2O2 challenge measured after 2 hrs by MTT assay; type: functional, PC-12
PC-12 [10] = experiment: Inhibition of H2O2-induced LDH release in rat PC12 cells at 5 to 20 ug/ml incubated for 24 hrs prior to H2O2 challenge measured after 2 hrs relative to control; type: functional, cell-based
PC-12 [11] = experiment: Inhibition of H2O2-induced NO production in rat PC12 cells at 20 ug/ml incubated for 24 hrs prior to H2O2 challenge measured after 2 hrs relative to control; type: functional
Mus musculus [12] = experiment: Neuroprotective effect in Kunming mouse assessed as reversal of scopolamine-induced reduction in ACh level in hippocampus at 25 to 100 mg/kg, po qd administered for 15 days followed by 1 hr prior to trial session for 6 days; type: functional, organism-based
[13] = Cytotoxicity against rat PC12 cells at 1 to 20 ug/ml by MTT assay; type: cell-based; conditions: pc-12
Mus musculus [14] = experiment: Neuroprotective effect in Kunming mouse assessed as increase in scopolamine-induced reduction in time spent in target quadrant at 50 to 100 mg/kg, po qd administered for 15 days followed by 1 hr prior to trial session for 6 days measured at day 5 by Morris water maze test relative to sham control; type: functional, organism-based
PC-12 [15] = experiment: Inhibition of H2O2-induced NO production in rat PC12 cells at 10 ug/ml incubated for 24 hrs prior to H2O2 challenge measured after 2 hrs relative to control; type: functional
Mus musculus [16] = experiment: Neuroprotective effect in Kunming mouse assessed as reversal of scopolamine-induced increase in AChE activity in hippocampus at 100 mg/kg, po qd administered for 15 days followed by 1 hr prior to trial session for 6 days relative to sham control; type: functional, organism-based; parameters: dose 100 mg/kg
PC-12 [17] = experiment: Inhibition of intracellular ROS generation in rat PC12 cells at 10 ug/ml incubated for 24 hrs prior to H2O2 challenge measured after 2 hrs by fluorescence assay relative to control; type: functional; conditions: values are per cent of control
Mus musculus [18] = experiment: Neuroprotective effect in po dosed Kunming mouse assessed as reduction in scopolamine-induced escape latency administered qd for 15 days followed by 1 hr prior to trial session for 6 days by Morris water maze test; type: functional, organism-based
Mus musculus [19] = experiment: Neuroprotective effect in Kunming mouse assessed as reduction in scopolamine-induced escape latency at 100 mg/kg, po qd administered for 15 days followed by 1 hr prior to trial session for 6 days by Morris water maze test; type: functional, organism-based; parameters: dose 100 mg/kg
Mus musculus [20] = experiment: Neuroprotective effect in Kunming mouse assessed as reversal of scopolamine-induced effect on spatial memory performance at 100 mg/kg, po qd administered for 15 days followed by 1 hr prior to trial session for 6 days by Morris water maze test relative to sham control; type: functional, organism-based; parameters: dose 100 mg/kg
Mus musculus [21] = experiment: Neuroprotective effect in Kunming mouse assessed as increase in scopolamine-induced reduction in swim speed at 25 to 100 mg/kg, po qd administered for 15 days followed by 1 hr prior to trial session for 6 days measured at day 5 by Morris water maze test relative to sham control; type: functional, organism-based
PC-12 [22] = experiment: Inhibition of H2O2-induced NO production in rat PC12 cells at 5 ug/ml incubated for 24 hrs prior to H2O2 challenge measured after 2 hrs relative to control; type: functional
Mus musculus [23] = experiment: Neuroprotective effect in Kunming mouse assessed as increase in scopolamine-induced reduction in SOD level in hippocampus at 25 to 100 mg/kg, po qd administered for 15 days followed by 1 hr prior to trial session for 6 days relative to control; type: functional, organism-based
Mus musculus [24] = experiment: Neuroprotective effect in Kunming mouse assessed as reduction in scopolamine-induced increase in MDA level in hippocampus at 25 to 100 mg/kg, po qd administered for 15 days followed by 1 hr prior to trial session for 6 days relative to control; type: functional, organism-based
Mus musculus [25] = experiment: Neuroprotective effect in Kunming mouse assessed as increase in scopolamine-induced reduction in time spent in platform crossing at 50 to 100 mg/kg, po qd administered for 15 days followed by 1 hr prior to trial session for 6 days measured at day 5 by Morris water maze test relative to sham control; type: functional, organism-based
PC-12 [26] = experiment: Inhibition of intracellular ROS generation in rat PC12 cells at 20 ug/ml incubated for 24 hrs prior to H2O2 challenge measured after 2 hrs by fluorescence assay relative to control; type: functional; conditions: values are per cent of control
Mus musculus [27] = experiment: Neuroprotective effect in Kunming mouse assessed as reduction in scopolamine-induced impairment in spatial learning and memory at 25 to 100 mg/kg, po qd administered for 15 days followed by 1 hr prior to trial session for 6 days measured at day 5 by Morris water maze test relative to sham control; type: functional, organism-based
Acetylcholinesterase [28] = target: T1, Acetylcholinesterase (Homo sapiens, UniProt P22303); experiment: Inhibition of AChE (unknown origin) by Ellman's method
T1 sequence (P22303 whole entry): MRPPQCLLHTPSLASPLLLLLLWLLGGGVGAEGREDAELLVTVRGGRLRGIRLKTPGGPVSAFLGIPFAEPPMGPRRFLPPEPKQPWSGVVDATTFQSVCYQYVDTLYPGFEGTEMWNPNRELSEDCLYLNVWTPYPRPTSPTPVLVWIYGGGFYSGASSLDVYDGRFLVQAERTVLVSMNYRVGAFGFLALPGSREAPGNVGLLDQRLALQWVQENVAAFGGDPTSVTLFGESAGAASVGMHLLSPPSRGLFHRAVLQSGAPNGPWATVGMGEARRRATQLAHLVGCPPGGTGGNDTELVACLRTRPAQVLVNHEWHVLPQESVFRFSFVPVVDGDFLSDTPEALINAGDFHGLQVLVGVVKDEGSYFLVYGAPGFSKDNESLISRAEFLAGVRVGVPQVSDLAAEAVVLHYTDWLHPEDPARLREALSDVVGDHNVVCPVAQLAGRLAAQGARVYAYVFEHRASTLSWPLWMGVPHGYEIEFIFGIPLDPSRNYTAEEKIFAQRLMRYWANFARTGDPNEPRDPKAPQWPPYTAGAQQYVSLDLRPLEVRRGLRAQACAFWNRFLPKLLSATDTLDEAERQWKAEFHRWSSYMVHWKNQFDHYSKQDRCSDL

[29] = Cytoprotective effect against H2O2-induced cell death in rat PC12 cells at 20 ug/ml incubated for 24 hrs prior to H2O2 challenge measured after 2 hrs by MTT assay; type: functional, PC-12
Mus musculus [30] = experiment: Neuroprotective effect in Kunming mouse assessed as increase in scopolamine-induced reduction in GPx level in hippocampus at 25 to 100 mg/kg, po qd administered for 15 days followed by 1 hr prior to trial session for 6 days relative to control; type: functional, organism-based
Mus musculus [31] = experiment: Neuroprotective effect in po dosed Kunming mouse assessed as increase in scopolamine-induced reduction in time spent in target quadrant administered qd for 15 days followed by 1 hr prior to trial session for 6 days by Morris water maze test; type: functional, organism-based
PC-12 [32] = experiment: Inhibition of intracellular ROS generation in rat PC12 cells at 5 ug/ml incubated for 24 hrs prior to H2O2 challenge measured after 2 hrs by fluorescence assay relative to control; type: functional; conditions: values are per cent of control
Mus musculus [33] = experiment: Neuroprotective effect in Kunming mouse assessed as reversal of scopolamine-induced increase in AChE activity in hippocampus at 25 to 100 mg/kg, po qd administered for 15 days followed by 1 hr prior to trial session for 6 days; type: functional, organism-based
[34] = Cytoprotective effect against H2O2-induced cell death in rat PC12 cells at 10 ug/ml incubated for 24 hrs prior to H2O2 challenge measured after 2 hrs by MTT assay; type: functional, PC-12
Acetylcholinesterase [35] = target: T1, Acetylcholinesterase; conditions: 40 ug/ml
Description: Inhibition of AChE (unknown origin) at 40 ug/ml by Ellman's method

PC-12 [36] = experiment: Inhibition of H2O2-induced NO production in rat PC12 cells incubated for 24 hrs prior to H2O2 challenge measured after 2 hrs relative to control; type: functional, cell-based
Mus musculus [37] = experiment: Neuroprotective effect in po dosed Kunming mouse assessed as increase in scopolamine-induced reduction in time spent in platform crossing administered qd for 15 days followed by 1 hr prior to trial session for 6 days by Morris water maze test; type: functional, organism-based
PC-12 [38] = experiment: Inhibition of H2O2-induced NO production in rat PC12 cells at 20 uM incubated for 24 hrs prior to H2O2 challenge measured after 2 hrs relative to control; type: functional, cell-based
PC-12 [39] = experiment: Inhibition of H2O2-induced LDH release in rat PC12 cells at 20 uM incubated for 24 hrs prior to H2O2 challenge measured after 2 hrs relative to control; type: functional, cell-based
PC-12 [40] = experiment: Cytoprotective effect against H2O2-induced cell death in rat PC12 cells at 20 uM incubated for 24 hrs prior to H2O2 challenge measured after 2 hrs by MTT assay; type: functional, cell-based

In the case of `C/C=C1\[C@H]2C=C(C)C[C@]1(N)c1ccc(=O)[nH]c1C2`, the Activity (Mus musculus [1]) was “Active”, the Activity (Mus musculus [2]) was “Active” and the Activity (Mus musculus [3]) was “Active”. The Activity (Mus musculus [4]) was “Active”, the Activity (Mus musculus [5]) was “Active” and the Activity (Mus musculus [6]) was “Active”. The Activity (Mus musculus [7]) was “Active” and the Activity (Mus musculus [8]) was “Active”.

In the case of `O=C1c2cccc(O)c2C(=O)c2c(O)cc(CO)cc21` [ALOE-EMODIN], the Activity [9] was 72.9%, the inhibition (PC-12 [10]) was “Active” and the inhibition at 20 µg/mL (PC-12 [11]) was 64.3%. For the same compound, the Activity (Mus musculus [12]) was “Active”, the Activity [13] was “Non-toxic” and the Activity (Mus musculus [14]) was “Active”. For the same compound, the inhibition at 10 µg/mL (PC-12 [15]) was 46.4%, the Activity (Mus musculus [16]) was “inactive” and the response, % of control at 10 µg/mL (PC-12 [17]) was 165%. For the same compound, the Activity (Mus musculus [18]) was “Dose-dependent effect”, the Activity (Mus musculus [19]) was “Active” and the Activity (Mus musculus [20]) was “Active”. The Activity (Mus musculus [21]) was “Active”, the inhibition at 5 µg/mL (PC-12 [22]) was 27.8% and the Activity (Mus musculus [23]) was “Active”. For the same compound, the Activity (Mus musculus [24]) was “Active”, the Activity (Mus musculus [25]) was “Active” and the response, % of control at 20 µg/mL (PC-12 [26]) was 149%. For the same compound, the Activity (Mus musculus [27]) was “Active”, the pIC50 (Acetylcholinesterase [28]) was 4.17 and the Activity [29] was 88.7%. The Activity (Mus musculus [30]) was “Active”, the Activity (Mus musculus [31]) was “Dose-dependent effect” and the response, % of control at 5 µg/mL (PC-12 [32]) was 195%. For the same compound, the Activity (Mus musculus [33]) was “Active”, the Activity [34] was 81% and the inhibition (Acetylcholinesterase [35]) was 70%. The inhibition (PC-12 [36]) was “Dose-dependent effect” and the Activity (Mus musculus [37]) was “Dose-dependent effect”.

In the case of VITAMIN E, the inhibition (PC-12 [38]) was 76.2%, the inhibition (PC-12 [39]) was “Active” and the Activity (PC-12 [40]) was “Active”.
